Consider eleven compounds from patent EP4389751A1, “HETEROCYCLIC COMPOUNDS AND USES THEREOF” (Kumquat Biosciences Inc., priority 2021, dated 2024).

The target in one assay is T1, K-Ras G12S (Homo sapiens, UniProt P01116, G12S).
T1 construct: made in house; host or cells: E. coli (e.g., BL21 (DE3))
The assay is described as follows: HTRF assay of the K-Ras / SOS1 interaction. In kind it is biochemical. The conditions noted are these: IC50 (against K-Ras G12D) to IC50 (against K-Ras G12S). A digest of the protocol:
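GST-K-Ras G12S with anti-GST-Eu donor and His-hSOS1 with anti-6His-XL665 acceptor in ~5 mM HEPES pH 7.4, ~150 mM NaCl, 1 mM DTT, 0.05% BSA, 0.0025% Igepal. Read after ~10 min or longer; IC50 from 665/620 nm ratio, duplicates at 10 µM down to 0.01 µM.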
(In general: TR-FRET usually uses a lanthanide donor and a delayed reading to cut background.)

In the next assay the test system is A549 cells. The assay can be described thus: Cell proliferation assay (CellTiter-Glo), K-Ras G12S cells. The format is cell-based. The settings on record: for IC50: Homo sapiens; for ratio of IC50 against a G12D cell line to IC50 against a G12S cell line: K-Ras G12D cell line such as GP2D relative to K-Ras G12S cell line such as A549, greater than 1, 2, 3, 4, 5, 10, 15 or even greater, 8640 min. A digest of the protocol: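 A549 cells (K-Ras G12S) in RPMI-1640 with 10% FBS, seeded in standard or ultra-low-attachment plates and dosed next day with a 10-point 3-fold series. Viability read about 6 days later by CellTiter-Glo luminescence. IC50 from four-parameter fit.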

The next assay deals with GP2D cells. The assay can be described thus: Cell proliferation assay (CellTiter-Glo), K-Ras G12D cells. In kind it is cell-based. The conditions noted are these: read-out: Inhibition of GP2D Cells (IC50). Summed up: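 GP2D (K-Ras G12D) cells seeded in DMEM with 2 mM glutamine and 10% FBS, then dosed next day with a dilution series (e.g., 9-point 3-fold). Viability read by CellTiter-Glo luminescence after about 5 days. IC50 from four-parameter fit.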

The mark [1] stands for this setting: A549, A549 cells (K-Ras G12S), bin ≤ 500 nM, read-out: Inhibition of A549 Cells (IC50).
Where [2] appears, read: A549, A549 cells (K-Ras G12S), bin 500 nM to 5 µM, read-out: Inhibition of A549 Cells (IC50).

The structures appear in SMILES notation. Like-named read-outs stand apart in the source and are kept apart here.

T1 sequence (P01116 1-188 isoform P01116-2 G12S): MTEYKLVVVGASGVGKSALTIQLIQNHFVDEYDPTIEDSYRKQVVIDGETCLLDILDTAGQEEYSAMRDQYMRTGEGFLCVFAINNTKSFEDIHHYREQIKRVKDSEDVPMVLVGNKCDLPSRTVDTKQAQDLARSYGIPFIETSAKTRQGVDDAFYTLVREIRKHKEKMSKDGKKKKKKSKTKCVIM

Turning to `N#Cc1c(N)sc2c(F)ccc(-c3c(Cl)cc4c(N5CCOC6CN(C(=O)n7cncn7)CC65)nc(OC[C@@]56CCCN5C[C@H](F)C6)nc4c3F)c12` (stereo partly drawn) [Compound A218, 4-(4-(6-(1H-1,2,4-triazole-1-carbonyl)hexahydropyrrolo [3,4-b][1,4]oxazin-4(4aH)-yl)-6-chloro-8-fluoro-2-(((2R,7aS)-2-fluorotetrahydro-1H-pyrrolizin-7a(5H)-yl)methoxy)quinazolin-7-yl)-2-amino-7-fluorobenzo[b]thiophene-3-carbonitrile], the “Ratio of IC50 KRAS G12D vs. IC50 KRAS G12S” value on K-Ras G12S is on record as “A (A: indicates that the ratio of IC50 against KrasG12D vs. IC50 against KrasG12S is 1-fold or greater)”. The IC50 (commonly the concentration at which inhibition is half-maximal) in the assay on A549 cells (setting [1]) was no more than 500 nM; in the assay on GP2D cells (GP2D cells (K-Ras G12D)), 1000 to 10000 nM. Besides, in the assay with A549 cells, the “ratio of IC50 against a G12D cell line to IC50 against a G12S cell line” value (“ratio of IC50 against a G12D cell line” for short) is reported as “greater than 1”.

Turning to `C#Cc1c(F)ccc2cc(O)cc(-c3ncc4c(N5CCOCC6(CN(C(=O)n7cnc(C)n7)C6)C5)nc(OC[C@@]56CCCN5C[C@H](F)C6)nc4c3F)c12` [Compound A298, (9-(7-(8-ethynyl-7-fluoro-3-hydroxynaphthalen-1-yl)-8-fluoro-2-(((2R,7aS)-2-fluorotetrahydro-1H-pyrrolizin-7a(5H)-yl)methoxy)pyrido[4,3-d]pyrimidin-4-yl)-6-oxa-2,9-diazaspiro[3.6]decan-2-yl)(3-methyl-1H-1,2,4-triazol-1-yl)methanone], on K-Ras G12S, the “Ratio of IC50 KRAS G12D vs. IC50 KRAS G12S” value was “A (A: indicates that the ratio of IC50 against KrasG12D vs. IC50 against KrasG12S is 1-fold or greater)”. Besides, the IC50 in the assay with A549 cells (setting [2]) fell in the range of 500 to 5000 nM; in the assay with GP2D cells (GP2D cells (K-Ras G12D)), 1000 to 10000 nM. Further, the “ratio of IC50 against a G12D cell line” value with A549 cells was “greater than 1”.

In the case of `COCCN1CCC(Oc2nc(N3CCCCC4(CN(C(=O)n5cncn5)C4)C3)c3cc(Cl)c(-c4ccc(F)c5sc(N)c(C#N)c45)c(F)c3n2)CC1` [Compound A119, 4-(4-(2-(1H-1,2,4-triazole-1-carbonyl)-2,6-diazaspiro[3.6]decan-6-yl)-6-chloro-8-fluoro-2-((1-(2-methoxyethyl)piperidin-4-yl)oxy)quinazolin-7-yl)-2-amino-7-fluorobenzo[b]thiophene-3-carbonitrile], at K-Ras G12S, the “Ratio of IC50 KRAS G12D vs. IC50 KRAS G12S” value is reported as “A (A: indicates that the ratio of IC50 against KrasG12D vs. IC50 against KrasG12S is 1-fold or greater)”. The IC50 in the assay on A549 cells (setting [2]) was in the range of 500 to 5000 nM; in the assay on GP2D cells (GP2D cells (K-Ras G12D)) it was 1000 to 10000 nM.

As to `Nc1nc2c(-c3c(Cl)cc4c(N5CCN(C(=O)n6cncn6)CC(F)(F)C5)nc(OC[C@@]56CCCN5C[C@H](F)C6)nc4c3F)ccc(F)c2s1` [Compound A141, (4-(7-(2-amino-7-fluorobenzo[d]thiazol-4-yl)-6-chloro-8-fluoro-2-(((2R,7aS)-2-fluorotetrahydro-1H-pyrrolizin-7a(5H)-yl)methoxy)quinazolin-4-yl)-6,6-difluoro-1,4-diazepan-1-yl)(1H-1,2,4-triazol-1-yl)methanone], the “Ratio of IC50 KRAS G12D vs. IC50 KRAS G12S” value at K-Ras G12S is recorded as “A (A: indicates that the ratio of IC50 against KrasG12D vs. IC50 against KrasG12S is 1-fold or greater)”. The IC50 in the assay on A549 cells (setting [2]) is 500 to 5000 nM; in the assay on GP2D cells (GP2D cells (K-Ras G12D)), 1000 to 10000 nM.

Take `N#Cc1ccn(C(=O)N2C3CCC2CN(c2nc(OC[C@@]45CCCN4C[C@H](F)C5)nc4c(F)c(-c5ccc(F)c6sc(N)c(C#N)c56)c(Cl)cc24)C3)n1` [Compound A224, 1-(3-(7-(2-amino-3-cyano-7-fluorobenzo[b]thiophen-4-yl)-6-chloro-8-fluoro-2-(((2R,7aS)-2-fluorotetrahydro-1H-pyrrolizin-7a(5H)-yl)methoxy)quinazolin-4-yl)-3,8-diazabicyclo[3.2. 1]octane-8-carbonyl)-1H-pyrazole-3-carbonitrile]: the “Ratio of IC50 KRAS G12D vs. IC50 KRAS G12S” value at K-Ras G12S is recorded as “A (A: indicates that the ratio of IC50 against KrasG12D vs. IC50 against KrasG12S is 1-fold or greater)”. The IC50 was 500 to 5000 nM in the assay on A549 cells (setting [2]) and no more than 1000 nM in the assay on GP2D cells (GP2D cells (K-Ras G12D)).

On to `Cc1ncn(C(=O)N2CC3(CCCN(c4nc(OC[C@@]56CCCN5C[C@H](F)C6)nc5c(F)c(-c6ccc(F)c7sc(N)c(C#N)c67)c(Cl)cc45)C3)C2)n1` [Compound A102, 2-amino-4-(6-chloro-8-fluoro-2-(((2R,7aS)-2-fluorotetrahydro-1H-pyrrolizin-7 a(5H)-yl)methoxy)-4-(2-(3-methyl-1H-1,2,4-triazole-1-carbonyl)-2,6-diazaspiro[3.5]nonan-6-yl)quinazolin-7-yl)-7-fluorobenzo[b]thiophene-3-carbonitrile], for which the “Ratio of IC50 KRAS G12D vs. IC50 KRAS G12S” value on K-Ras G12S is “A (A: indicates that the ratio of IC50 against KrasG12D vs. IC50 against KrasG12S is 1-fold or greater)”. The IC50 in the assay on A549 cells (setting [1]) was no more than 500 nM; with GP2D cells (GP2D cells (K-Ras G12D)), 1000 to 10000 nM. Also, the “ratio of IC50 against a G12D cell line” value in the assay on A549 cells was “greater than 1”.

Turning to `N#Cc1c(N)sc2c(F)ccc(-c3c(Cl)cc4c(N5CCC6C5CN6C(=O)n5cncn5)nc(OC[C@@]56CCCN5C[C@H](F)C6)nc4c3F)c12` (stereo partly drawn) [Compound A183, 4-(4-(6-(1H-1,2,4-triazole-1-carbonyl)-2,6-diazabicyclo[3.2.0]heptan-2-yl)-6-chloro-8-fluoro-2-(((2R,7aS)-2-fluorotetrahydro-1H-pyrrolizin-7a(5H)-yl)methoxy)quinazolin-7-yl)-2-amino-7-fluorobenzo[b]thiophene-3-carbonitrile], the “Ratio of IC50 KRAS G12D vs. IC50 KRAS G12S” value on K-Ras G12S was “A (A: indicates that the ratio of IC50 against KrasG12D vs. IC50 against KrasG12S is 1-fold or greater)”. Besides, the figures for the IC50 with A549 cells (setting [1]) and in the assay with GP2D cells (GP2D cells (K-Ras G12D)) were no more than 500 nM and no more than 1000 nM, respectively. For the same compound, the “ratio of IC50 against a G12D cell line” value with A549 cells is “greater than 1”.

In the case of `N#Cc1c(N)sc2c(F)ccc(-c3c(Cl)cc4c(N[C@H]5C[C@H]6CC[C@@H](C5)N6C(=O)n5cncn5)nc(OC[C@@]56CCCN5C[C@H](F)C6)nc4c3F)c12` [Compound A257, 4-(4-(((1R,3r,5S)-8-(1H-1,2,4-triazole-1-carbonyl)-8-azabicyclo[3.2.1]octan-3-yl)amino)-6-chloro-8-fluoro-2-(((2R,7aS)-2-fluorotetrahydro-1H-pyrrolizin-7 a(5H)-yl)methoxy)quinazolin-7-yl)-2-amino-7-fluorobenzo[b]thiophene-3-carbonitrile], the “Ratio of IC50 KRAS G12D vs. IC50 KRAS G12S” value on K-Ras G12S was “A (A: indicates that the ratio of IC50 against KrasG12D vs. IC50 against KrasG12S is 1-fold or greater)”. The 50% inhibitory concentration (IC50) in the assay on A549 cells (A549, read-out: Inhibition of A549 Cells (IC50)) lay in the range of 500 to 5000 nM; in the assay on GP2D cells (GP2d), 1000 to 10000 nM.

Take `N#Cc1c(N)sc2c(F)ccc(-c3c(Cl)cc4c(N5CCC6(CN(C(=O)n7cncn7)C6)C5)nc(OC[C@@]56CCCN5C[C@H](F)C6)nc4c3F)c12` [Compound A277, 4-(4-(2-(1H-1,2,4-triazole-1-carbonyl)-2,6-diazaspiro[3.4]octan-6-yl)-6-chloro-8-fluoro-2-(((2R,7aS)-2-fluorotetrahydro-1H-pyrrolizin-7a(5H)-yl)methoxy)quinazolin-7-yl)-2-amino-7-fluorobenzo[b]thiophene-3-carbonitrile]: the “Ratio of IC50 KRAS G12D vs. IC50 KRAS G12S” value on K-Ras G12S is “A (A: indicates that the ratio of IC50 against KrasG12D vs. IC50 against KrasG12S is 1-fold or greater)”. The concentration for half-maximal inhibition (IC50) in the assay on A549 cells (setting [1]) is no more than 500 nM; in the assay with GP2D cells (GP2D cells (K-Ras G12D)), 1000 to 10000 nM. Further, the “ratio of IC50 against a G12D cell line” value with A549 cells was “greater than 1”.

Regarding `N#Cc1c(N)sc2c(F)ccc(-c3c(Cl)cc4c(N5CC6(CCCCN(C(=O)n7cncn7)C6)C5)nc(OC[C@@]56CCCN5C[C@H](F)C6)nc4c3F)c12` [Compound A285, 4-(4-(6-(1H-1,2,4-triazole-1-carbonyl)-2,6-diazaspiro[3.6]decan-2-yl)-6-chloro-8-fluoro-2-(((2R,7aS)-2-fluorotetrahydro-1H-pyrrolizin-7a(5H)-yl)methoxy)quinazolin-7-yl)-2-amino-7-fluorobenzo[b]thiophene-3-carbonitrile], the “Ratio of IC50 KRAS G12D vs. IC50 KRAS G12S” value on K-Ras G12S is “A (A: indicates that the ratio of IC50 against KrasG12D vs. IC50 against KrasG12S is 1-fold or greater)”. Further, the IC50 was no more than 500 nM with A549 cells (setting [1]) and 1000 to 10000 nM in the assay with GP2D cells (GP2D cells (K-Ras G12D)).

`N#Cc1c(N)sc2c(F)ccc(-c3c(Cl)cc4c(OC5CCCCN(C(=O)n6cncn6)C5)nc(OC[C@@]56CCCN5C[C@H](F)C6)nc4c3F)c12` (stereo partly drawn) [Compound A258, 4-(4-((1-(1H-1,2,4-triazole-1-carbonyl)azepan-3-yl)oxy)-6-chloro-8-fluoro-2-(((2R,7aS)-2-fluorotetrahydro-1H-pyrrolizin-7a(5H)-yl)methoxy)quinazolin-7-yl)-2-amino-7-fluorobenzo[b]thiophene-3-carbonitrile]: on K-Ras G12S, the “Ratio of IC50 KRAS G12D vs. IC50 KRAS G12S” value was “A (A: indicates that the ratio of IC50 against KrasG12D vs. IC50 against KrasG12S is 1-fold or greater)”. Further, the figures for the IC50 in the assay with A549 cells (setting [1]) and with GP2D cells (GP2D cells (K-Ras G12D)) were no more than 500 nM and no more than 1000 nM, respectively.
